Source: patent US20250018014A1, “METHOD FOR TREATING AND/OR PREVENTING REGNASE-1-RELATED DISEASE” (OSAKA UNIVERSITY, priority 2018, published 2025)
Where two headings read alike, the source gives them in different places. Residues, ends and D or L forms follow the SMILES beside them.

Legend:
Assay type in all cases: biochemical
[1] = target: T1, ΔCTD_Reg1 (amino acids 1 to 546 of human Regnase-1) phosphorylation by TBK1 (Homo sapiens, UniProt Q5D1E8); experiment: Regnase-1 phosphorylation inhibition by compounds (AlphaScreen), TBK1, CTD-deficient Regnase-1
T1 construct: made in house; host or cells: Expi293 cells
T1 sequence (Q5D1E8 1-546): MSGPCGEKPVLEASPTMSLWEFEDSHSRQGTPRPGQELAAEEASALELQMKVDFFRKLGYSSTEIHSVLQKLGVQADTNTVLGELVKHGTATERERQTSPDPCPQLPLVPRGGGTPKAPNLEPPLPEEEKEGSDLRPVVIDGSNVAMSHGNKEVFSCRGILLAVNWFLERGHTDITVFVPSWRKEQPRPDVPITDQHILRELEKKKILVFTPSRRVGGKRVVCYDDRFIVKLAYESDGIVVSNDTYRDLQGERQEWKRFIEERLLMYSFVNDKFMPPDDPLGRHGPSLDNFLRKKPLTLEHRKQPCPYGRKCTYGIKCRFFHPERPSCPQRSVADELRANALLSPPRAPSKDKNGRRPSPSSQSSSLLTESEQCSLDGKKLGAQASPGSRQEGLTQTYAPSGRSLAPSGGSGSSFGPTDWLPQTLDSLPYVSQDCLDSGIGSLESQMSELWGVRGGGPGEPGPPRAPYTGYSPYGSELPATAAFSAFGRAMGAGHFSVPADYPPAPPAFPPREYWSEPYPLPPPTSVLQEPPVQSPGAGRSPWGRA
Source text: (§1) The full-length sequence of human Regnase-1 (UniProt ID: Q5D1E8) was used to prepare a construct having a FLAG tag on the N-terminal side and a recognition sequence for biotin ligase BirA on the C-terminal side (FL_Reg1) as a target protein. The above-mentioned Regnase-1 was expressed in mammalian Expi293 cells, purified with FLAG M2 agarose, and isolated by gel filtration chromatography. When biotinylation was required, methods from nonpatent documents (BMC biotechnology, 2008,8,41; and Protein Science, 1999,8,921-929) were used.
(§2) Among the full-length human Regnase-1 sequence, the 1st to 546th amino acid sequence was prepared and made into a construct having a FLAG tag on the N-terminal side and a biotin ligase BirA recognition sequence on the C-terminal side (herein, a Regnase-1 lacking the C-terminal domain of Regnase-1 (amino acids 547 to 599 in the case of SEQ ID NO: 2) is referred to as “ΔCTD_Reg1”. “ΔCTD_Reg1” is different from “Regnase-1ΔCTD”, which is a C-terminal domain deletion variant resulting from a frameshift mutation caused by a 1 bp deletion at codon 517, as prepared in Example 13). In addition, the sequence from amino acids 301 to 599 of the full-length human Regnase-1 sequence was designated as C-terminal Regnase-1, and a construct having a FLAG tag on the N-terminal side and a recognition sequence for biotin ligase BirA on the C-terminal side was prepared (Reg1_301-599). The above-mentioned Regnase-1 was expressed in mammalian Expi293 cells, purified with FLAG M2 agarose, and isolated by gel filtration chromatography. When biotinylation was required, methods of nonpatent documents (BMC biotechnology, 2008,8,41; and Protein Science, 1999,8,921-929) were used.
(§3) Using Kinase assay buffer III (manufactured by SignalChem) supplemented with 2 mM DTT, 100 μM sodium vanadate, and 2 mM manganese chloride, kinase (IKKβ (manufactured by SignalChem) or TBK1 (manufactured by SignalChem)) and Regnase-1 were reacted in the presence of 10 μM ATP at room temperature for 2 hours to perform a phosphorylation reaction.
(§4) Phosphorylated Regnase-1 was detected by the AlphaScreen system. After each of the above-mentioned phosphorylated Regnase-1 antibodies was added and reacted at room temperature for one hour, anti-FLAG AlphaLISA Acceptor Beads (manufactured by PerkinElmer) and Protein A AlphaScreen Donor Beads (manufactured by PerkinElmer) were added, and EnVision (manufactured by PerkinElmer) was used to measure the excited luminescence. As a result, phosphorylated Regnase-1 produced by the phosphorylation reaction by kinase was specifically detected, and signals were confirmed to be enhanced in a manner dependent on Regnase-1 and kinase concentrations (FIG. 24).
(§5) After mixing 2 nM of the above-mentioned Regnase-1 and the compound, phosphorylated Regnase-1 produced by the phosphorylation reaction was detected by the AlphaScreen system. As the results, the inhibition rate was calculated from the signals obtained when adding the compound at each concentration, by defining the signal obtained with Regnase-1 alone to be 100% inhibition rate, and the signal obtained when the same amount of solvent (DMSO) is added in place of the compound as 0% inhibition rate. The 50% inhibition concentration (μM) was calculated from the obtained dose response curve (Table 11).

[2] = target: T2, ΔCTD_Reg1 (amino acids 1 to 546 of human Regnase-1) phosphorylation by IKKβ (Homo sapiens, UniProt Q5D1E8); experiment: Regnase-1 phosphorylation inhibition by compounds (AlphaScreen), IKKβ, CTD-deficient Regnase-1
T2 construct: made in house; host or cells: Expi293 cells
T2 sequence (Q5D1E8 1-546): T1 sequence (Q5D1E8 1-546)
Protocol: as §2, §3, §4, §5

[3] = target: T3, Reg1_301-599 (amino acids 301-599 of human Regnase-1) phosphorylation by IKKβ (Homo sapiens, UniProt Q5D1E8); experiment: Regnase-1 phosphorylation inhibition by compounds (AlphaScreen), IKKβ, C-terminal Regnase-1; conditions: Table 14, read-out: Phosphorylation inhibition Reg1_301-599, 50% inhibition concentration (IKKβ)
T3 construct: made in house; host or cells: Expi293 cells
T3 sequence (Q5D1E8 301-599): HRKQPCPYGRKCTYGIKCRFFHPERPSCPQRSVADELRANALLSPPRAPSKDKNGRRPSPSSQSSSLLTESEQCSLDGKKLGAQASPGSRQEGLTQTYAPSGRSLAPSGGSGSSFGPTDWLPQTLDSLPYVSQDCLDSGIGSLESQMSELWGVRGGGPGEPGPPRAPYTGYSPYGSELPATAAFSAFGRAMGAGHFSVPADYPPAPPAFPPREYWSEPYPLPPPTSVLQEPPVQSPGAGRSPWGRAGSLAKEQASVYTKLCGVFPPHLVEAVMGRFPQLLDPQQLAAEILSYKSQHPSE
Source text: as §1, §2, §3, §4, §5

[4] = target: T4, Reg1_301-599 (amino acids 301-599 of human Regnase-1) phosphorylation by TBK1 (Homo sapiens, UniProt Q5D1E8); experiment: Regnase-1 phosphorylation inhibition by compounds (AlphaScreen), TBK1, C-terminal Regnase-1; conditions: Table 13, read-out: Phosphorylation inhibition Reg1_301-599, 50% inhibition concentration (TBK1)
T4 construct: made in house; host or cells: Expi293 cells
T4 sequence (Q5D1E8 301-599): T3 sequence (Q5D1E8 301-599)
Protocol: as §2, §3, §4, §5

[5] = Table 11, 2 nM Regnase-1, AlphaScreen, read-out: 50% inhibition concentration, Regnase-1 phosphorylation, ΔCTD_Reg1, TBK1
[6] = Table 11, 2 nM Regnase-1, AlphaScreen, read-out: 50% inhibition concentration, Regnase-1 phosphorylation, ΔCTD_Reg1, IKKβ
[7] = Table 13, phosphorylation by TBK1, read-out: Phosphorylation inhibition ΔCTD_Reg1, 50% inhibition concentration (TBK1)
[8] = Table 14, phosphorylation by IKKβ, read-out: Phosphorylation inhibition ΔCTD_Reg1, 50% inhibition concentration (IKKβ)

| SMILES | IC50 [1, 5] [µM] | IC50 [2, 6] [µM] | IC50 [4] [µM] | further results |
| --- | --- | --- | --- | --- |
| CC[C@H](C)[C@@H]1NC(=O)[C@H](CCCNC(=N)N)NC(=O)[C@H](Cc2ccc(O)cc2)NC(=O)[C@H](Cc2c[nH]c3ccccc23)NC(=O)[C@H](CO)NC(=O)[C@H](CC(N)=O)NC(=O)[C@H](C)N(C)C(=O)C[C@@H](C(=O)N2CCCC2)NC(=O)[C@H](CC(C)C)NC(=O)CNC(=O)[C@H](Cc2c[nH]c3ccccc23)NC1=O [PP22] (HELM PEPTIDE1{[meA].N.S.W.Y.R.I.W.G.L.D.[C1CCN([*:1])C1]}$PEPTIDE1,PEPTIDE1,1:R1-11:R3$$$V2.0) |  |  |  | IC50 [3]: 31 µM |
| CC[C@H](C)[C@@H]1NC(=O)[C@H](CC(=O)O)NC(=O)[C@H](C)N(C)C(=O)C[C@@H](C(=O)N2CCCC2)NC(=O)[C@H](Cc2c[nH]c3ccccc23)NC(=O)[C@H](CC(=O)O)NC(=O)[C@H](Cc2c[nH]c3ccccc23)NC(=O)[C@H](Cc2ccc(O)cc2)NC(=O)[C@H](CC(=O)O)NC(=O)[C@H](Cc2ccccc2)NC(=O)[C@H](Cc2c[nH]c3ccccc23)NC1=O [PP17] (HELM PEPTIDE1{[meA].D.I.W.F.D.Y.W.D.W.D.[C1CCN([*:1])C1]}$PEPTIDE1,PEPTIDE1,1:R1-11:R3$$$V2.0) |  |  | < 0.06 | IC50 [1, 7]: 0.3 µM; IC50 [2, 8]: 0.3 µM |
| CC[C@H](C)[C@@H]1NC(=O)[C@H](CC(N)=O)NC(=O)[C@H](Cc2ccc(O)cc2)NC(=O)[C@H](Cc2c[nH]c3ccccc23)NC(=O)[C@H](C)NC(=O)[C@H](CC(N)=O)NC(=O)[C@H](CO)NC(=O)[C@H](Cc2c[nH]cn2)NC(=O)[C@H](C)N(C)C(=O)C[C@@H](C(=O)N2CCCC2)NC(=O)[C@H](Cc2c[nH]c3ccccc23)NC1=O [PP5] (HELM PEPTIDE1{[meA].H.S.N.A.W.Y.N.I.W.D.[C1CCN([*:1])C1]}$PEPTIDE1,PEPTIDE1,1:R1-11:R3$$$V2.0) | 19.1 | 20.4 |  |  |
| CC[C@H](C)[C@@H]1NC(=O)[C@H](CC(N)=O)NC(=O)[C@H]([C@@H](C)CC)NC(=O)[C@H](Cc2ccc(O)cc2)NC(=O)[C@H](Cc2c[nH]c3ccccc23)NC(=O)[C@H](CO)NC(=O)[C@H](CC(N)=O)NC(=O)[C@H](C)N(C)C(=O)C[C@@H](C(=O)N2CCCC2)NC(=O)[C@H](Cc2c[nH]cn2)NC(=O)CNC(=O)[C@H](Cc2c[nH]c3ccccc23)NC1=O [PP15] (HELM PEPTIDE1{[meA].N.S.W.Y.I.N.I.W.G.H.D.[C1CCN([*:1])C1]}$PEPTIDE1,PEPTIDE1,1:R1-12:R3$$$V2.0) |  |  |  | IC50 [2, 8]: 31 µM |
| CC[C@H](C)[C@@H]1NC(=O)[C@H](Cc2ccc(O)cc2)NC(=O)[C@H](C)N(C)C(=O)C[C@@H](C(=O)N2CCCC2)NC(=O)[C@H](CC(C)C)NC(=O)[C@H](CC(=O)O)NC(=O)CNC(=O)[C@H](Cc2ccccc2)NC(=O)[C@H](Cc2ccccc2)NC(=O)[C@H](CC(=O)O)NC(=O)[C@H](Cc2c[nH]c3ccccc23)NC1=O [PP4] (HELM PEPTIDE1{[meA].Y.I.W.D.F.F.G.D.L.D.[C1CCN([*:1])C1]}$PEPTIDE1,PEPTIDE1,1:R1-11:R3$$$V2.0) | 44.9 | 8.3 |  |  |
| CC[C@H](C)[C@@H]1NC(=O)[C@H](CC(N)=O)NC(=O)[C@H](Cc2ccc(O)cc2)NC(=O)[C@H](Cc2c[nH]c3ccccc23)NC(=O)[C@H](CO)NC(=O)[C@H](CC(N)=O)NC(=O)[C@H](CO)NC(=O)[C@H](Cc2ccccc2)NC(=O)[C@H](CC(N)=O)NC(=O)[C@H](C)N(C)C(=O)C[C@@H](C(=O)N2CCCC2)NC(=O)[C@H](Cc2c[nH]c3ccccc23)NC1=O [PP16] (HELM PEPTIDE1{[meA].N.F.S.N.S.W.Y.N.I.W.D.[C1CCN([*:1])C1]}$PEPTIDE1,PEPTIDE1,1:R1-12:R3$$$V2.0) |  |  | > 62.1 |  |

The next lines start with results.

| IC50 [1, 5] [µM] | IC50 [2, 6] [µM] | IC50 [4] [µM] | SMILES | further results |
| --- | --- | --- | --- | --- |
| 14.5 | 20.3 |  | CC[C@H](C)[C@@H]1NC(=O)[C@H](CCCCN)NC(=O)[C@H](Cc2ccccc2)NC(=O)[C@H](Cc2c[nH]c3ccccc23)NC(=O)[C@H](CO)NC(=O)[C@H](CO)NC(=O)[C@H](CC(N)=O)NC(=O)[C@@H]2CCCN2C(=O)[C@@H](C)N(C)C(=O)C[C@@H](C(=O)N2CCCC2)NC(=O)[C@H](Cc2c[nH]c3ccccc23)NC1=O [PP6] (HELM PEPTIDE1{[C[C@H](C(=O)[*:2])N(C)[*:1]].P.N.S.S.W.F.K.I.W.D.[C1CCN([*:1])C1]}$PEPTIDE1,PEPTIDE1,1:R1-11:R3$$$V2.0) |  |
| 17.6 | 14 |  | CC[C@H](C)[C@@H]1NC(=O)[C@H](CC(N)=O)NC(=O)[C@H](Cc2ccc(O)cc2)NC(=O)[C@H](Cc2c[nH]c3ccccc23)NC(=O)[C@H](CO)NC(=O)[C@H](CC(N)=O)NC(=O)[C@H](C)NC(=O)[C@H](Cc2ccc(O)cc2)NC(=O)CNC(=O)[C@H](C)N(C)C(=O)C[C@@H](C(=O)N2CCCC2)NC(=O)[C@H](Cc2c[nH]c3ccccc23)NC1=O [PP2] (HELM PEPTIDE1{[meA].G.Y.A.N.S.W.Y.N.I.W.D.[C1CCN([*:1])C1]}$PEPTIDE1,PEPTIDE1,1:R1-12:R3$$$V2.0) |  |
|  |  | 17 | CC[C@H](C)[C@@H]1NC(=O)[C@H](CCCCN)NC(=O)[C@H](Cc2ccc(O)cc2)NC(=O)[C@H](Cc2c[nH]c3ccccc23)NC(=O)[C@H](CO)NC(=O)[C@H](CC(N)=O)NC(=O)[C@H](C)N(C)C(=O)C[C@@H](C(=O)N2CCCC2)NC(=O)[C@H](CC(C)C)NC(=O)CNC(=O)[C@H](Cc2c[nH]c3ccccc23)NC1=O [PP21] (HELM PEPTIDE1{[meA].N.S.W.Y.K.I.W.G.L.D.[C1CCN([*:1])C1]}$PEPTIDE1,PEPTIDE1,1:R1-11:R3$$$V2.0) |  |
|  |  | 5.8 | CC[C@H](C)[C@@H]1NC(=O)[C@H](CCCCN)NC(=O)[C@H](Cc2ccc(O)cc2)NC(=O)[C@H](Cc2ccccc2)NC(=O)[C@H](C(C)C)NC(=O)[C@H](C)N(C)C(=O)C[C@@H](C(=O)N2CCCC2)NC(=O)[C@H](Cc2c[nH]c3ccccc23)NC(=O)[C@H](CC(N)=O)NC(=O)[C@H](Cc2ccc(O)cc2)NC(=O)[C@H](Cc2c[nH]c3ccccc23)NC1=O [PP19] (HELM PEPTIDE1{[meA].V.F.Y.K.I.W.Y.N.W.D.[C1CCN([*:1])C1]}$PEPTIDE1,PEPTIDE1,1:R1-11:R3$$$V2.0) | IC50 [1, 7]: 4.6 µM |
